The text below walks through data of article PMC9823331, “Permeability of New Antifungal Fluconazole Derivatives through a Lipophilic Membrane: Experiment and Modeling” (Molecules, 2023).

Data set [1] is described as follows: Distribution in the 1-octanol/buffer pH 7.4 system. The class given is physicochemical. To be noted: calculated by Henderson–Hasselbalch equation.
Data set [2] relates to C. parapsilosis ATCC 22019. The arrangement: method as in earlier work. The conditions noted are these: cited from earlier work.
On the set-up of data set [3]: method as in PMID 33713781. The conditions noted are these: cited from earlier work.
The nature of data set [4]: Membrane permeability assay through the PermeaPad barrier (Franz diffusion cell). The conditions noted are these: buffer pH 7.4, 37 °C, values are Papp multiplied by 10^5, read-out: Papp⋅10^5, apparent permeability coefficient. The class given is in vitro ADME. The text has this:
A vertical-type Franz diffusion cell (PermeGear, Inc., Hellertown, PA, USA) was used to measure the permeability of the studied compounds. The biomimetic lipophilic PermeaPad barrier (PHABIOC, Germany, www.permeapad.com, accessed on 20 May 2021) fully described by di Cagno et al. was employed in the present study to simulate the morphology and properties of the biologic membranes. This membrane was chosen because of its advantageous properties and user friendliness. PermeaPad belongs to cell-free permeation systems. It is composed of two cellulose membranes with a thin layer of phosphatidylcholine (S-100) between them. […]
Firstly, the donor chamber was filled with the donor solution of the tested compound in buffer pH 7.4, then the PermeaPad barrier was mounted between the donor and receptor parts of the diffusion cell (0.785 cm^2 effective surface area) carefully avoiding the air bubbles (which can minimize the active area of the membrane, thus, slowing the permeation). […] The sample solution concentrations were measured spectrophotometrically (Spectramax 190; Molecular Devices, Molecular Devices Corporation, San Jose, CA, USA) in 96-well UV black plates (Costar) at λ = 270 nm. […]
The apparent permeability coefficient (Papp) was calculated by normalizing the slope (J) by the compound concentration in the donor solution (C0) by the equation:(9) Papp=J/C0 […]

`O=c1c2sc(=S)n(-c3ccc(F)cc3)c2ncn1CC(O)(Cn1cncn1)c1ccc(F)cc1F` (centres unmarked) [III, N-[2-(2,4-difluorophenyl)-2-hydroxy-3-(1,2,4-triazol-1-yl)propyl]-3-(4-fluorophenyl)-2-thioxo-thiazolo[4,5-d]pyrimidin-7-one]: the “logK0, distribution coefficient for the uncharged particles” value (“logK0, distribution coefficient” below) in data set [1] was -4.76. In data set [2], the “log(1/MIC)” value is -1.51.
`O=C(Cn1cnc2c(sc(=S)n2-c2ccc(Cl)cc2)c1=O)NCC(O)(Cn1cncn1)c1ccc(F)cc1F` (centres unmarked) [V, N-[2-(2,4-difluorophenyl)-2-hydroxy-3-(1,2,4-triazol-1-yl)propyl]-2-[3-(4-chlorophenyl)-7-oxo-2-thioxo-thiazolo[4,5-d]pyrimidin-6-yl]-acetamide]: the “logK0, distribution coefficient” value in data set [1] was -4.69. The “log(1/MIC)” value in data set [2] was -1.51.
With `COc1ccccc1-n1c(=S)sc2c(=O)n(CC(=O)NCC(O)(Cn3cncn3)c3ccc(F)cc3F)cnc21` (centres unmarked) [VII, N-[2-(2,4-difluorophenyl)-2-hydroxy-3-(1,2,4-triazol-1-yl)propyl]-2-[3-(2-methoxyphenyl)-7-oxo-2-thioxo-thiazolo[4,5-d]pyrimidin-6-yl]acetamide], in data set [3], the “logKoct/buf, apparent distribution coefficient in the 1-octanol/buffer pH 7.4 system” value was 0.80. Also, the “logK0, distribution coefficient” value in data set [1] is on record as -4.73. In data set [2], the “log(1/MIC)” value is -1.51.
As to `Cc1ccc(-n2c(=S)sc3c(=O)n(CC(=O)NCC(O)(Cn4cncn4)c4ccc(F)cc4F)cnc32)cc1` (centres unmarked) [IV, N-[2-(2,4-difluorophenyl)-2-hydroxy-3-(1,2,4-triazol-1-yl)propyl]-2-[7-oxo-3-(p-tolyl)-2-thioxo-thiazolo[4,5-d]pyrimidin-6-yl]acetamide], the “logKoct/buf, apparent distribution coefficient in the 1-octanol/buffer pH 7.4 system” value in data set [3] is listed as 1.27. For the same molecule, the “logK0, distribution coefficient” value in data set [1] is recorded as -4.68. Also, the “log(1/MIC)” value in data set [2] is given as -1.51.
As for `O=C(Cn1cnc2c(sc(=S)n2-c2ccc(F)cc2)c1=O)NCC(O)(Cn1cncn1)c1ccc(F)cc1F` (centres unmarked) [VI, N-[2-(2,4-difluorophenyl)-2-hydroxy-3-(1,2,4-triazol-1-yl)propyl]-2-[3-(4-fluorophenyl)-7-oxo-2-thioxo-thiazolo[4,5-d]pyrimidin-6-yl]acetamide], the “logK0, distribution coefficient” value in data set [1] is on record as -4.72. Further, in data set [2], the “log(1/MIC)” value is -1.51.
`Cc1ccc(-n2c(=S)sc3c(=O)n(CCN4CCN(CC(O)(Cn5cncn5)c5ccc(F)cc5F)CC4)cnc32)cc1` (centres unmarked) [XII, N-[2-[4-[2-(2,4-difluorophenyl)-2-hydroxy-3-(1,2,4-triazol-1-yl)propyl]piperazin-1-yl]ethyl]-2-methyl-3-(p-tolyl)-2-thioxo-thiazolo[4,5-d]pyrimidin-7-one]: the “logKoct/buf, apparent distribution coefficient in the 1-octanol/buffer pH 7.4 system” value in data set [3] is given as 2.90. Further, the “logK0, distribution coefficient” value in data set [1] is recorded as -3.95. Moreover, the “log(1/MIC)” value in data set [2] was 0.30. In addition, the Papp (commonly the rate of passage across a membrane or cell layer, normalised by area and donor concentration) at 5 h in data set [4] stood at 18.8 ± 0.42 ×10⁻⁶ cm/s.
With `Cc1ccc(-n2c(=S)sc3c(=O)n(CC(O)(Cn4cncn4)c4ccc(F)cc4F)cnc32)cc1` (centres unmarked) [I, N-[2-(2,4-difluorophenyl)-2-hydroxy-3-(1,2,4-triazol-1-yl)propyl]-3-(p-tolyl)-2-thioxo-thiazolo[4,5-d]pyrimidin-7-one], the “logKoct/buf, apparent distribution coefficient in the 1-octanol/buffer pH 7.4 system” value in data set [3] is listed as 0.79. Besides, in data set [2], the “log(1/MIC)” value was -1.51.
As to `COc1ccccc1-n1c(=S)sc2c(=O)n(CC(O)(Cn3cncn3)c3ccc(F)cc3F)cnc21` (centres unmarked) [II, N-[2-(2,4-difluorophenyl)-2-hydroxy-3-(1,2,4-triazol-1-yl)propyl]-3-(2-methoxyphenyl)-2-thioxo-thiazolo[4,5-d]pyrimidin-7-one], the “logK0, distribution coefficient” value in data set [1] is given as -4.66. Moreover, the “log(1/MIC)” value in data set [2] is recorded as -0.90.
